This test relates to Artemia. Put plainly: Tested for bioactivity against Brine Shrimp. Format: functional.
`CC[C@H](C)[C@H]1O[C@]2(CC[C@@H]1C)C[C@@H]1C[C@@H](C/C=C(\C)[C@@H](O[C@@H]3C[C@@H](OC)[C@H](O[C@@H]4C[C@@H](OC)[C@H](O)[C@@H](C)O4)[C@@H](C)O3)[C@@H](C)/C=C/C=C3\COC4[C@H](O)C(C)=C[C@@H](C(=O)O1)[C@]34O)O2` (stereo not given in full) yielded an IC100 of 430 ng/mL.
Turning to `CC[C@H](C)[C@H]1O[C@]2(C=C[C@@H]1C)C[C@@H]1C[C@@H](C/C=C(\C)[C@@H](O[C@@H]3C[C@@H](OC)[C@H](O[C@@H]4C[C@@H](OC)[C@H](O)[C@@H](C)O4)[C@@H](C)O3)[C@@H](C)/C=C/C=C3\COC4[C@H](O)C(C)=C[C@@H](C(=O)O1)[C@]34O)O2` (stereo not given in full), the IC100 worked out at 335 ng/mL.
Compound `CC[C@H](C)[C@H]1O[C@]2(C=C[C@@H]1C)C[C@@H]1C[C@@H](C/C=C(\C)[C@@H](O[C@@H]3C[C@@H](OC)[C@H](O[C@@H]4C[C@@H](OC)[C@H](O)[C@@H](C)O4)[C@@H](C)O3)[C@@H](C)/C=C/C(O)[C@]3(O)COC4[C@H](O)C(C)=C[C@@H](C(=O)O1)[C@@]43O)O2` (stereo not given in full) gave an IC100 above 55000 ng/mL.
For `CC[C@H](C)[C@H]1O[C@]2(C=C[C@@H]1C)C[C@@H]1C[C@@H](C/C=C(\C)[C@@H](O[C@@H]3C[C@@H](OC)[C@H](O[C@@H]4C[C@@H](OC)[C@H](O)[C@@H](C)O4)[C@@H](C)O3)[C@@H](C)/C=C/C(Sc3ccccc3)[C@]3(O)COC4[C@H](O)C(C)=C[C@@H](C(=O)O1)[C@@]43O)O2` (stereo not given in full), the IC100 was above 55000 ng/mL.
Compound `CC[C@H](C)[C@H]1O[C@]2(C=C[C@@H]1C)C[C@@H]1C[C@@H](C/C=C(\C)[C@@H](O[C@@H]3C[C@@H](OC)[C@H](O[C@@H]4C[C@@H](OC)[C@H](O)[C@@H](C)O4)[C@@H](C)O3)[C@@H](C)/C=C/[C@@H]3O[C@]34COC3[C@H](O)C(C)=C[C@@H](C(=O)O1)[C@@]34O)O2` (stereo not given in full) registered an IC100 of 650 ng/mL.
